compound: CC(O)(CS(=O)(=O)c1ccc(F)cc1)C(=O)Nc1ccc(C#N)c(C(F)(F)F)c1 [Bicalutamide] + CC(=O)Nc1cccc(-n2c(=O)n(C3CC3)c(=O)c3c(Nc4ccc(I)cc4F)n(C)c(=O)c(C)c32)c1 [Trametinib] (partner 0.02 µM); experiment: relative viability (nuclei count vs DMSO), 5 days (fraction); higher = more cells survive; conditions: first compound 0.08 µM
How it was run: (§1)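 One day after seeding in 1536-well plates, lung cancer cell lines were dosed by pin tool. Dosing was either single-drug or a fixed anchor-drug dose plus five library-drug doses (not always all listed) in √10 steps. After 5 days, nuclei were stained in one fix-and-stain step and counted on 4× images, and relative viability is the nuclei count of treated wells over that of vehicle wells, given as the median of duplicate plates.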

Point of comparison: NCI-H2126, relative viability 0.546. Against it:
- EMC-BAC-2 — higher, 0.911
- NCI-H2087 — lower, 0.214
- NCI-H1666 — higher, 0.926
- NCI-H647 — lower, 0.482
- LK-2 — higher, 0.652
- SK-MES-1 — lower, 0.534
- H3255 — higher, 0.666
- COR-L23 — higher, 0.616
- COR-L 105 — lower, 0.397
- LOU-NH91 — higher, 0.755
- NCI-H3122 — lower, 0.202
- HOP-62 — lower, 0.396
- HCC-44 — higher, 1.16
- LU99A — lower, 0.529
- BEN — higher, 1.05
- HARA — higher, 0.942
- NCI-H441 — lower, 0.492
- LCLC-97TM1 — lower, 0.214
- NCI-H2023 — higher, 0.547
- A-427 — higher, 0.782
- NCI-H460 — lower, 0.139
- NCI-H727 — lower, 0.38
- NCI-H1734 — higher, 0.709
- NCI-H520 — higher, 0.725
- NCI-H2405 — higher, 0.674
- SW 1573 — higher, 0.668
- NCI-H1395 — higher, 0.986
- 201T — higher, 0.703
- NCI-H1915 — lower, 0.338
- HCC-827 — higher, 0.58

same assay, conditions: first compound 0.253 µM

Point of comparison: NCI-H520, relative viability 0.363. Against it:
- EMC-BAC-2 — higher, 0.771
- NCI-H2087 — lower, 0.191
- NCI-H1666 — higher, 0.838
- NCI-H647 — higher, 0.429
- LK-2 — higher, 0.672
- NCI-H2126 — higher, 0.523
- SK-MES-1 — higher, 0.508
- H3255 — higher, 0.567
- COR-L23 — higher, 0.545
- COR-L 105 — higher, 0.371
- LOU-NH91 — higher, 0.724
- NCI-H3122 — lower, 0.241
- HOP-62 — higher, 0.403
- HCC-44 — higher, 1.09
- LU99A — higher, 0.445
- BEN — higher, 0.94
- NCI-H441 — higher, 0.374
- LCLC-97TM1 — lower, 0.177
- NCI-H2023 — higher, 0.52
- A-427 — higher, 0.731
- NCI-H460 — lower, 0.129
- NCI-H727 — higher, 0.381
- NCI-H1734 — higher, 0.531
- NCI-H2405 — higher, 0.606
- SW 1573 — higher, 0.473
- NCI-H1395 — higher, 1.04
- 201T — higher, 0.725
- NCI-H1915 — lower, 0.288
- HCC-827 — higher, 0.459

same assay, conditions: first compound 0.8 µM

Point of comparison: NCI-H3122, relative viability 0.225. Against it:
- EMC-BAC-2 — higher, 0.891
- NCI-H2087 — lower, 0.178
- NCI-H1666 — higher, 0.866
- NCI-H647 — higher, 0.721
- LK-2 — higher, 1.15
- NCI-H2126 — higher, 0.545
- SK-MES-1 — higher, 0.456
- H3255 — higher, 0.717
- COR-L23 — higher, 0.71
- COR-L 105 — higher, 0.383
- LOU-NH91 — higher, 0.82
- HOP-62 — higher, 0.427
- HCC-44 — higher, 1.07
- LU99A — higher, 0.6
- BEN — higher, 1.17
- HARA — higher, 0.634
- NCI-H441 — higher, 0.497
- LCLC-97TM1 — lower, 0.212
- NCI-H2023 — higher, 0.556
- A-427 — higher, 0.845
- NCI-H460 — lower, 0.128
- NCI-H727 — higher, 0.414
- NCI-H1734 — higher, 0.681
- NCI-H520 — higher, 0.939
- NCI-H2405 — higher, 0.78
- SW 1573 — higher, 0.748
- NCI-H1395 — higher, 1.12
- 201T — higher, 0.7
- NCI-H1915 — higher, 0.286
- HCC-827 — higher, 0.552

same assay, conditions: first compound 2.53 µM

Point of comparison: HARA, relative viability 0.48. Against it:
- EMC-BAC-2 — higher, 0.728
- NCI-H2087 — lower, 0.202
- NCI-H1666 — higher, 0.959
- NCI-H647 — lower, 0.414
- LK-2 — higher, 0.742
- NCI-H2126 — higher, 0.626
- SK-MES-1 — higher, 0.499
- H3255 — higher, 0.569
- COR-L23 — higher, 0.579
- COR-L 105 — lower, 0.381
- LOU-NH91 — higher, 0.791
- NCI-H3122 — lower, 0.258
- HOP-62 — lower, 0.354
- HCC-44 — higher, 1.1
- LU99A — higher, 0.495
- BEN — higher, 1.1
- NCI-H441 — lower, 0.406
- LCLC-97TM1 — lower, 0.188
- NCI-H2023 — lower, 0.382
- A-427 — higher, 0.688
- NCI-H460 — lower, 0.129
- NCI-H727 — lower, 0.399
- NCI-H1734 — higher, 0.663
- NCI-H520 — lower, 0.432
- NCI-H2405 — higher, 0.638
- SW 1573 — higher, 0.608
- NCI-H1395 — higher, 0.948
- 201T — higher, 0.738
- NCI-H1915 — lower, 0.229
- HCC-827 — higher, 0.547

compound: CC(O)(CS(=O)(=O)c1ccc(F)cc1)C(=O)Nc1ccc(C#N)c(C(F)(F)F)c1 [Bicalutamide] + CCNC(=O)c1noc(-c2cc(C(C)C)c(O)cc2O)c1-c1ccc(CN2CCOCC2)cc1 [Luminespib] (partner 0.01 µM); experiment: as above; conditions: first compound 0.08 µM
How it was run: as §1

Point of comparison: HCC-44, relative viability 0.907. Against it:
- EMC-BAC-2 — higher, 1.13
- NCI-H2087 — lower, 0.157
- NCI-H1666 — higher, 1.04
- NCI-H647 — lower, 0.126
- LK-2 — lower, 0.161
- NCI-H2126 — higher, 0.923
- SK-MES-1 — lower, 0.609
- H3255 — lower, 0.827
- COR-L23 — lower, 0.718
- COR-L 105 — higher, 1.04
- LOU-NH91 — lower, 0.367
- NCI-H3122 — lower, 0.0979
- HOP-62 — higher, 0.917
- LU99A — lower, 0.268
- BEN — lower, 0.416
- HARA — higher, 0.987
- NCI-H441 — lower, 0.291
- LCLC-97TM1 — lower, 0.793
- NCI-H2023 — lower, 0.868
- A-427 — higher, 1.02
- NCI-H460 — lower, 0.0289
- NCI-H727 — lower, 0.366
- NCI-H1734 — lower, 0.193
- NCI-H520 — lower, 0.232
- NCI-H2405 — lower, 0.669
- SW 1573 — lower, 0.506
- NCI-H1395 — lower, 0.726
- 201T — higher, 1.06
- NCI-H1915 — lower, 0.761
- HCC-827 — lower, 0.704

same assay, conditions: first compound 0.253 µM

Point of comparison: NCI-H3122, relative viability 0.0782. Against it:
- EMC-BAC-2 — higher, 1.14
- NCI-H2087 — higher, 0.153
- NCI-H1666 — higher, 0.989
- NCI-H647 — higher, 0.114
- LK-2 — higher, 0.167
- NCI-H2126 — higher, 0.904
- SK-MES-1 — higher, 0.736
- H3255 — higher, 0.857
- COR-L23 — higher, 0.699
- COR-L 105 — higher, 0.721
- LOU-NH91 — higher, 0.295
- HOP-62 — higher, 1.01
- HCC-44 — higher, 0.97
- LU99A — higher, 0.236
- BEN — higher, 0.344
- HARA — higher, 0.721
- NCI-H441 — higher, 0.377
- LCLC-97TM1 — higher, 0.659
- NCI-H2023 — higher, 0.703
- A-427 — higher, 0.761
- NCI-H460 — lower, 0.0405
- NCI-H1734 — higher, 0.174
- NCI-H520 — higher, 0.22
- NCI-H2405 — higher, 0.661
- SW 1573 — higher, 0.213
- NCI-H1395 — higher, 0.774
- 201T — higher, 1.03
- NCI-H1915 — higher, 0.69
- HCC-827 — higher, 0.676

same assay, conditions: first compound 0.8 µM

Point of comparison: NCI-H2023, relative viability 1. Against it:
- EMC-BAC-2 — higher, 1.17
- NCI-H2087 — lower, 0.168
- NCI-H1666 — higher, 1.03
- NCI-H647 — lower, 0.255
- LK-2 — lower, 0.175
- NCI-H2126 — higher, 1.16
- SK-MES-1 — lower, 0.97
- COR-L23 — lower, 0.764
- COR-L 105 — lower, 0.911
- LOU-NH91 — lower, 0.331
- NCI-H3122 — lower, 0.126
- HOP-62 — higher, 1.09
- HCC-44 — higher, 1.44
- LU99A — lower, 0.286
- BEN — lower, 0.541
- HARA — lower, 0.678
- NCI-H441 — lower, 0.356
- LCLC-97TM1 — lower, 0.941
- A-427 — the same, 1
- NCI-H460 — lower, 0.0453
- NCI-H727 — lower, 0.378
- NCI-H1734 — lower, 0.212
- NCI-H520 — lower, 0.274
- NCI-H2405 — lower, 0.826
- SW 1573 — lower, 0.209
- NCI-H1395 — lower, 0.854
- 201T — higher, 1.02
- NCI-H1915 — lower, 0.934
- HCC-827 — higher, 1.35

same assay, conditions: first compound 2.53 µM

Point of comparison: NCI-H1395, relative viability 0.621. Against it:
- EMC-BAC-2 — higher, 1.06
- NCI-H2087 — lower, 0.259
- NCI-H1666 — higher, 0.961
- NCI-H647 — lower, 0.112
- LK-2 — lower, 0.21
- NCI-H2126 — higher, 0.915
- SK-MES-1 — higher, 0.709
- H3255 — higher, 0.813
- COR-L23 — higher, 0.649
- COR-L 105 — higher, 0.652
- LOU-NH91 — lower, 0.322
- NCI-H3122 — lower, 0.106
- HOP-62 — higher, 0.885
- HCC-44 — higher, 1.15
- LU99A — lower, 0.205
- BEN — lower, 0.39
- HARA — higher, 0.847
- NCI-H441 — lower, 0.411
- LCLC-97TM1 — higher, 0.829
- NCI-H2023 — higher, 0.634
- A-427 — higher, 0.763
- NCI-H460 — lower, 0.035
- NCI-H727 — lower, 0.339
- NCI-H1734 — lower, 0.186
- NCI-H520 — lower, 0.205
- NCI-H2405 — higher, 0.627
- SW 1573 — lower, 0.181
- 201T — higher, 1.1
- NCI-H1915 — higher, 0.762
- HCC-827 — higher, 0.668

compound: C(C(=O)C(=O)O)Br [Bromopyruvate] + Cc1nc(NC(=O)N2CCC[C@H]2C(N)=O)sc1-c1ccnc(C(C)(C)C(F)(F)F)c1 [Alpelisib] (partner 2 µM); experiment: as above; conditions: first compound 1 µM
How it was run: as §1

Point of comparison: NCI-H1666, relative viability 1.21. Against it:
- EMC-BAC-2 — lower, 0.658
- NCI-H2087 — lower, 1.03
- NCI-H647 — lower, 1.12
- LK-2 — lower, 0.565
- NCI-H2126 — lower, 0.796
- SK-MES-1 — lower, 0.842
- H3255 — lower, 0.765
- COR-L23 — lower, 0.771
- COR-L 105 — lower, 0.975
- LOU-NH91 — lower, 0.764
- NCI-H3122 — lower, 0.841
- HOP-62 — lower, 0.696
- HCC-44 — lower, 0.781
- LU99A — lower, 0.516

From the supplement of paper PMC10307832
